The record followed here is US12630511B2, “Benzamide derivative, preparation method therefor, and pharmaceutical composition comprising same as active ingredient for prevention or treatment of cancer” (KOREA RESEARCH INSTITUTE OF CHEMICAL TECHNOLOGY, priority 2019, dated 2026).

Test [1] deals with T1, EGFR L858R/T790M/C797S mutant enzyme (Homo sapiens, UniProt P00533, C797S/L858R/T790M).
T1 construct: purchased SignalChem
Kind of test: Inhibitory capacity against EGFR L858R/T790M/C797S mutant enzyme (Cisbio HTRF). Format: biochemical. Particulars: for IC50: HTRF, 1 mM ATP, 37° C. for 2 hours, 7 concentrations. Here is the method:
Experimental Example 1: Measurement of Inhibitory Capacity Against EGFR L858R/T790M/C797S
In order to confirm the inhibitory capacity of the compounds prepared in Examples 1 to 13 provided in one aspect of the present invention against EGFR mutation, the following experiment was performed.
Particularly, the activity of the compounds of the present invention against EGFR mutant enzyme was measured using the HTRF system of Cisbio Co. As an EGFR L858R/T790M/C797S mutant enzyme, a protein provided by SignalChem was purchased and used as an enzyme source.
The composition of the assay buffer used for the activity measurement was as follows: 50 mM Tris-HCl (pH 7.5), 100 mM NaCl, 7.5 mM MgCl2, 3 mM KCl, 0.01% Tween 20, 0.1% BSA, and 1 mM DTT. Herein, an enzyme reaction was performed using a peptide substrate labeled with ATP at the concentration of 1 mM and biotin at the concentration of 0.5 μM. The analysis of the EGFR activity inhibitory effect of the compounds was performed according to the following analytical reaction recipe. • Component 1: 4 μl of EGFR mutant enzyme • Component 2: 2 μl of compound solution • Component 3: 4 μl of ATP and biotin-labeled peptide mixture
The enzyme reaction was initiated by mixing the component 1 and the component 2 first and then adding the component 3 thereto. After reacting the mixture at 37° C. for 2 hours, 10 μl of a measurement solution consisting of streptavidin-XL665 and europium-labeled anti-phosphotyrosine antibody provided by Cisbio was added to the enzyme reaction solution, followed by reaction at room temperature for 1 hour. Finally, the ratio of the fluorescence values at 615 nm and 665 nm was calculated using Envision equipment of Perkin-Elmer to quantitatively measure the enzyme activity and confirm the inhibitory ability of the compounds. The values measured at 7 concentrations of the compound were analyzed using Prism program (version 5.01, Graphpad Software, Inc.), and the IC50 value, an index of the inhibitory ability of the compound, was calculated.

Test [2] has as its system Ba/F3 EGFR L858R/T790M (LT) cells. Kind of test: Anticancer activity in BaF3 cells overexpressing EGFR L858R/T790M (CellTiter-Glo), alone or combined with cetuximab. It is filed as cell-based. Particulars: cells overexpressed with EGFR L858R/T790M; combined with cetuximab; 72 hours; FIG. 1 and FIG. 2. Here is the method: (§1) Experimental Example 2: Evaluation of Anticancer Activity in BaF3 Cells Overexpressed with Various EGFR Mutations
(§2) In order to confirm that the compound represented by formula 1 according to the present invention acted as an allosteric inhibitor against EGFR wild-type and mutants, the inhibitory effect on EGFR wild-type and mutants in Ba/F3 cell line was evaluated. In addition, in order to evaluate the cellular activity when the compound according to the present invention was co-administered with an existing drug, the cellular activity according to the combined administration was evaluated using Cetuximab used alone or in combination with chemotherapy in metastatic colorectal cancer and metastatic squamous head and neck cancer.
(§3) Particularly, the activity of the compound of the present invention against the wild-type and mutant Ba/F3 EGFR cell lines was measured as follows using the CellTiter-Glo system of Promega. […]
(§4) BaF3 cells were aliquoted in a 96 well cell culture plate at the density of 2500 cells/50 ul per well, to which 50 ul of the compound represented by formula 1 was treated at the concentrations of 0, 0.03, 0.1, 0.3, and 1 μM. […] Finally, the ratio of the fluorescence values at 570 nm was quantitatively measured using a luminometer, and the ability of the compound to inhibit cell viability was confirmed. […]

For test [3], the system named is Ba/F3 L858R/T790M/C797S (LTC) cells. The test can be described thus: Anticancer activity in BaF3 cells overexpressing EGFR L858R/T790M/C797S (CellTiter-Glo), alone or combined with cetuximab. It is filed as cell-based. Particulars: cells overexpressed with EGFR L858R/T790M/C797S; combined with cetuximab; 72 hours; FIG. 1 and FIG. 2. The procedure: as §1, §2, §3, §4
A general note: In ATP-based viability assays light output follows the ATP content of the culture.

T1 sequence (P00533 25-1210 T790M/C797S/L858R): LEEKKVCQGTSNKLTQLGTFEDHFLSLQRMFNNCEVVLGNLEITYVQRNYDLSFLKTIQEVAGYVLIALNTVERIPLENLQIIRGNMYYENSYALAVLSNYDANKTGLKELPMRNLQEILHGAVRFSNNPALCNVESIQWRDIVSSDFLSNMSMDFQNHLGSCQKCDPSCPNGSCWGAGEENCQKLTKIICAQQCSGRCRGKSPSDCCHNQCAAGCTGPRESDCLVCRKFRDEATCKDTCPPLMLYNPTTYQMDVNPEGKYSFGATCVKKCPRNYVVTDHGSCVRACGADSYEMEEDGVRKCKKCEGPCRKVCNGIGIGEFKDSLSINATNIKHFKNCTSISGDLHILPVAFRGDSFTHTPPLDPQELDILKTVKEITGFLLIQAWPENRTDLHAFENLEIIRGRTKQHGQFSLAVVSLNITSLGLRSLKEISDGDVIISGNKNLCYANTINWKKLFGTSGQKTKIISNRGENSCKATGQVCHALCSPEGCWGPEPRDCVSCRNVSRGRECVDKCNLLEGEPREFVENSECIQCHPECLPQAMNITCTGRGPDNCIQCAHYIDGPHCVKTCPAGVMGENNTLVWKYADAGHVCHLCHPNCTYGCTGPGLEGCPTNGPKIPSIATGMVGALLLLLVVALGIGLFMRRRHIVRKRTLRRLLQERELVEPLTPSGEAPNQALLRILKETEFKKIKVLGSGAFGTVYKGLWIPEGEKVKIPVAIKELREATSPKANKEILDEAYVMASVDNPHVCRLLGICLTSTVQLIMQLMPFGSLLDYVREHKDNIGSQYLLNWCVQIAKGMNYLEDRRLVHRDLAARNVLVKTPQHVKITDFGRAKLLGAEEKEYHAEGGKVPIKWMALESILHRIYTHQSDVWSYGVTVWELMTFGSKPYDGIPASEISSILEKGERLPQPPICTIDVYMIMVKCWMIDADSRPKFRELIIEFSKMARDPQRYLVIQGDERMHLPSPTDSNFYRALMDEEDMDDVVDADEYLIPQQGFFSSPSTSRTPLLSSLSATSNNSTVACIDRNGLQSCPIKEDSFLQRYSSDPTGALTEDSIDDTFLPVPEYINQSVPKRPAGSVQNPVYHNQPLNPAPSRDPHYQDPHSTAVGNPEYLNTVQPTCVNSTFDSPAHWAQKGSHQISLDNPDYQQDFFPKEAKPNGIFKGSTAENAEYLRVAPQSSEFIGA

For the compound `O=C(N[C@@H](c1cc2ccccc2[nH]1)c1cc(F)ccc1O)c1cccc(-c2ccc(N3CCNCC3)cc2)c1` [Example 1, (R)—N-((5-fluoro-2-hydroxyphenyl)(1H-indole-2-yl)methyl)-4′-(piperazine-1-yl)-[1,1′-biphenyl]-3-carboxamide], the IC50 in test [1] worked out at 46 nM. Still for that read-out and setting: the same measure for `CC(=O)N1CCN(c2ccc(-c3cccc(C(=O)N[C@@H](c4cc5ccccc5[nH]4)c4cc(F)ccc4O)c3)cc2)CC1` [Example 2, (R)-4′-(4-acetylpiperazine-1-yl)-N-((5-fluoro-2-hydroxyphenyl)(1H-indole-2-yl)methyl)-[1,1′-biphenyl]-3-carboxamide]: 61 nM. Consider `NC1CCN(c2ccc(-c3cccc(C(=O)N[C@@H](c4cc5ccccc5[nH]4)c4cc(F)ccc4O)c3)cc2)CC1` [Example 3, (R)-4′-(4-aminopiperidine-1-yl)-N-((5-fluoro-2-hydroxyphenyl)(1H-indole-2-yl)methyl)-[1,1′-biphenyl]-3-carboxamide], for which the “anticancer activity in combination with cetuximab (cell viability relative to cetuximab only)” value in test [2] and in test [3] was “synergistic anticancer activity” each time. In addition, 7 nM corresponded to half-maximal inhibition in test [1] (IC50). The “inhibitory capacity against EGFR L858R/T790M/C797S mutation (in words)” value in test [1] (summary of Table 2) was “excellent inhibitory capacity”. In turn, `NC1CCN(c2ccc(-c3cccc(C(=O)N[C@@H](c4cc5ccccc5[nH]4)c4cc(Cl)ccc4O)c3)cc2)CC1` [Example 4, (R)-4′-(4-aminopiperidine-1-yl)-N-((5-chloro-2-hydroxyphenyl)(1H-indole-2-yl)methyl)-[1,1′-biphenyl]-3-carboxamide] returned an IC50 in test [1] of 640 nM. The compound `CN1CCN(C2CCN(c3ccc(-c4cccc(C(=O)N[C@@H](c5cc6ccccc6[nH]5)c5cc(F)ccc5O)c4)cc3)CC2)CC1` [Example 5, (R)—N-((5-fluoro-2-hydroxyphenyl)(1H-indole-2-yl)methyl)-4′-(4-(4-methylpiperazine-1-yl)piperidine-1-yl)-[1,1′-biphenyl]-3-carboxamide] came in with an IC50 in test [1] of 2600 nM. The same measure, in the same setting: the same measure for `O=C(N[C@@H](c1cc2ccccc2[nH]1)c1cc(F)ccc1O)c1cccc(-c2ccc(N3CCC(N4CCNCC4)CC3)cc2)c1` [Example 6, (R)—N-((5-fluoro-2-hydroxyphenyl)(1H-indole-2-yl)methyl)-4′-(4-(piperazine-1-yl)piperidine-1-yl)-[1,1′-biphenyl]-3-carboxamide]: 190 nM; for `CN(C)C1CCN(c2ccc(-c3cccc(C(=O)N[C@@H](c4cc5ccccc5[nH]4)c4cc(F)ccc4O)c3)cc2)CC1` [Example 7, (R)-4′-(4-(dimethylamino)piperidine-1-yl)-N-((5-fluoro-2-hydroxyphenyl)(1H-indole-2-yl)methyl)-[1,1′-biphenyl]-3-carboxamide]: 160 nM. With `O=C(N[C@@H](c1cc2ccccc2[nH]1)c1cc(F)ccc1O)c1cccc(-c2ccc(N3CCN(C4CCNCC4)CC3)cc2)c1` [Example 8, (R)—N-((5-fluoro-2-hydroxyphenyl)(1H-indole-2-yl)methyl)-4′-(4-(piperidine-4-yl)piperazine-1-yl)-[1,1′-biphenyl]-3-carboxamide], the IC50 in test [1] was 140 nM.

For `CN1CCC(N2CCN(c3ccc(-c4cccc(C(=O)N[C@@H](c5cc6ccccc6[nH]5)c5cc(F)ccc5O)c4)cc3)CC2)CC1` [Example 9, (R)—N-((5-fluoro-2-hydroxyphenyl)(1H-indole-2-yl)methyl)-4′-(4-(1-methylpiperidine-4-yl)piperazine-1-yl)-[1,1′-biphenyl]-3-carboxamide], in test [1], the IC50 is 72 nM.

Turning to `O=C(N[C@@H](c1cc2ccccc2[nH]1)c1cc(F)ccc1O)c1cccc(-c2ccc(N3CCCC3)cc2)c1` [Example 10, (R)—N-((5-fluoro-2-hydroxyphenyl)(1H-indole-2-yl)methyl)-4′-(pyrrolidine-1-yl)-[1,1′-biphenyl]-3-carboxamide], the concentration for half-maximal inhibition (IC50) in test [1] is 5900 nM. On the same count and under the same terms, the same measure for `N[C@@H]1CCN(c2ccc(-c3cccc(C(=O)N[C@@H](c4cc5ccccc5[nH]4)c4cc(F)ccc4O)c3)cc2)C1` [Example 11, 4′-((R)-3-aminopyrrolidine-1-yl)-N—((R)-(5-fluoro-2-hydroxyphenyl)(1H-indole-2-yl)methyl)-[1,1′-biphenyl]-3-carboxamide]: 160 nM; for `N[C@H]1CCN(c2ccc(-c3cccc(C(=O)N[C@@H](c4cc5ccccc5[nH]4)c4cc(F)ccc4O)c3)cc2)C1` [Example 12, 4′-((S)-3-aminopyrrolidine-1-yl)-N—((R)-(5-fluoro-2-hydroxyphenyl)(1H-indole-2-yl)methyl)-[1,1′-biphenyl]-3-carboxamide]: 180 nM. In test [1], `N[C@H]1CCN(c2ccc(-c3cccc(C(=O)N[C@@H](c4cc5ccccc5[nH]4)c4cc(Cl)ccc4O)c3)cc2)C1` [Example 13, 4′-((S)-3-aminopyrrolidine-1-yl)-N—((R)-(5-chloro-2-hydroxyphenyl)(1H-indole-2-yl)methyl)-[1,1′-biphenyl]-3-carboxamide] showed an IC50 of over 10000 nM.

A word on the IC50: it is the concentration that gives 50% inhibition. A higher IC50 goes with a need for much substance.
